Earlier results on one compound are cited in patent publication US11910793B2, “Multifunctional agricultural adjuvant compositions” (WINFIELD SOLUTIONS, LLC, priority 2019, dated 2024).

For the series the following is noted: water at 0° C.

Consider `N.N.O=S(=O)(O)O` [AMS, ammonium sulfate], for which the “amount of AMS dissolvable in water” value is listed as 41 wt. %.
